Results on 6 compounds are retold here after patent US12268700B2, “3-o-sulfo-galactosylceramide analogs as activators of type II NKT cells and uses thereof” (The United States of America, as represented by the …, priority 2018, dated 2025).

In one experiment the test system is lung mononuclear cells. As to the kind of experiment: Ex vivo stimulation of lung mononuclear cells with lipid-pulsed BMDC, IL-13 ELISA. In kind it is cell-based, BALB/c mice. Conditions: BMDC pulsed with 33 μM lipid, 4 days, FIG. 3; for production of IL-13: ELISA of culture supernatant. As for the experimental part: For the preparation of lung mononuclear cells, lungs were perfused with warm Dulbecco's Phosphate-Buffered Saline (DPBS) (Life Technologies, Frederick, MD) from the heart right ventricle. Single cell suspension was prepared with a Lung Dissociation Kit (Miltenyi Biotec, San Diego, CA) according to the manufacturer's protocol. Lung mononuclear cells (LMNC) were then purified from the cell suspension by a 40%/80% gradient of Percoll (Sigma-Aldrich, St-Louis, MO).
BMDC were prepared by collecting bone marrow cells from femurs and tibias of BALB/c mice in complete medium. Cells were suspended at the concentration of 0.2×10^6/ml in complete medium supplemented with 20 ng/ml of GM-CSF (Peprotech, Rocky Hill, NJ) and 2×10^6 cells were plated per Petri dish (Corning, Tewksbury, MA). Fresh medium supplemented with 20 ng/ml GM-CSF was added at day 3 and refreshed at day 6. At day 8 the cells were harvested, washed in complete medium and suspended at 0.4×10^6/ml in complete medium supplemented with 10 ng/ml of GM-CSF and 1 μg/ml of LPS (Sigma-Aldrich). 4×10^6 cells were plated per Petri dish for 24 h.
200 μg of sulfatide of sulfatide-analogues dry powder was dissolved in 100 μl of DPBS containing 0.5% Tween20 (PBS-Tween) (Avantor performance materials). BMDCs were washed and put at the concentration of 1×10^7/ml and incubated 3 h at 37° C. in presence of 30 μg/ml of sulfatide or sulfatide-analogues or the same volume of PBS-Tween as vehicle control. After washing, 100×10^3 pulsed BMDCs were cultured with 0.5×10^6 lung mononuclear cells in complete medium in flat-bottom 96 well plates for 4 days at 37° C., 5% CO2. When indicated, 10 μg/ml of anti-CD1d antibody (20H2, Harlan, Indianapolis, IN) was added. Supernatants were harvested, and IL-13 production was determined by ELISA according to the recommendations of the manufacturer (eBioscience).
Lung mononuclear cells from WT BALB/c mice were stimulated for 4 days in presence of BMDC (bone marrow derived dendritic cells) pulsed with 33 μM of sulfatide, vehicle control, or 33 μM of the sulfatide analogues pC24:1, pC24:2, or C24:2 in presence or absence of the anti-CD1d blocking antibody 20H2 to confirm the dependency of the IL-13 production on CD1d. The production of IL-13 was measured by ELISA in the culture supernatant. The results are shown in FIG. 3 (n=4, duplicates from 2 independent experiments.

Experiment [1] has as its system XV19 type II NKT hybridoma. In words: In vitro stimulation of type II NKT hybridoma with lipid-loaded plate-coated CD1d monomers, IL-2 ELISA. Type of experiment: cell-based, mouse. Conditions: 24 h, 0.5 μg plate-coated CD1d monomers loaded with 4 μM sulfatide or analogues, 10 nM α-GalCer or β-GalCer. As for the experimental part:
The hybridoma XV19 was created by Cardell, S. et al. (J. Experimental Medicine, 182: 993-1004 (1995)) and was provided by Susanna Cardell.
(§1) CD monomers were loaded as described above. Flat bottom 96 well plates were coated overnight with 0.5 μg of CD1d monomers loaded with 4 μM of sulfatide or sulfatide-analogues, 10 nM of α-GalCer or with 10 ng/ml of anti-CD3 antibody (Biolegend, San Diego, CA) dissolved in PBS. Plates were then washed in PBS and complete medium. 50×10^3 hybridoma cells in 200 μl of complete medium were plated in presence or not of anti-CD1d blocking antibody 20H2.
(§2) Cells were cultured for 24 h at 37° C., 5% CO2. The production of IL-2 was measured by ELISA from the culture supernatant according to the recommendations of the manufacturer.
(§3) Therefore, well-described type I and type II NKT hybridoma cell lines were used in this experiment. The type I NKT hybridoma DN32.D3 expresses the murine semi-invariant TCR Vα14Jα18 associated with the Vβ8.2/Jβ2.4 chain (Brutkiewicz et al.) and is specific for α-GalCer.

In experiment [2] the test system is DN32.D3 type I NKT hybridoma. As to the kind of experiment: In vitro stimulation of type I NKT hybridoma with lipid-loaded plate-coated CD1d monomers, IL-2 ELISA. In kind it is cell-based, murine. The note with it: 24 h; for DN32 activation (IL-2 production): 0.5 μg plate-coated CD1d monomers loaded with 4 μM sulfatide or analogues, 10 nM α-GalCer or β-GalCer; for level of activation (amount of IL-2 produced) of DN32.D3, compared with reference lipids: CD1d monomers loaded with 4 μM lipid. As for the experimental part: The hybridoma cell line DN32.D3 created by Brutkiewicz et al. (R. R. Brutkiewicz et al., J. Experimental Medicine, 183: 1913-1919 (1995)) that express the TCR semi-invariant α-chain Vα14Jα18 associated with the Vβ8.2Jβ2.4 chain was used.
as §1, §2, §3

In experiment [3] the test system is CT26 (colon cancer) cells. As to the kind of experiment: CT26 lung metastasis model, lung nodule count. Type of experiment: in vivo, BALB/c mice. Conditions: for number of lung nodules: same day 33 nmol sulfatide or analogues or 500 pmol α-GalCer i.p., counted 8 to 12 days, compared to vehicle, FIG. 5. As for the experimental part:
200 μg of sulfatide of sulfatide-analogues dry powder were resuspended with 40 μl of PBS-Tween20-0.05% and warm at 37° C. for 10 min. Then, 697 μl of DPBS were added to obtain a concentration of 300 μg/ml of lipid. Mice received an i.p injection of 100 μl of sulfatide or analogue mix that is equivalent to […] of lipid. A solution of 500 μM of α-GalCer in DPBS-tween20-0.05% was thawed and sonicated at 60° C. for 2 min and a solution at 10 μM was prepared in DPBS. Mice were injected i.p. with […] (100 μl) of α-GalCer solution.
The CT26 cell were cultured in tumor medium: RPMI 1640 (Life technologies) supplemented with 10% heat inactivated fetal calf serum, 2 mM L-Glutamine, penicillin, streptomycin, 10 mM HEPES, 1/100 vol non-essential amino acids, and 1 mM sodium pyruvate 1/1000 of β-mercaptoethanol. Cells were harvested at 80-85% confluence, detached from plastic with trypsin treatment and resuspended at 5×10^6 cell/ml in DPBS. Mice were injected i.v in the tail vein with 0.5×10^6 CT26 cells (100 μl). The same day, mice were injected i.p. with […] of sulfatide or sulfatide analogues, or 10 nmol of α-GalCer.
WT BALB/c mice were injected intravenously (i.v.) with 0.5×10^6 CT26 (colon cancer) and treated the same day with 33 nmol of sulfatide or sulfatide-analogues or 500 pmol of α-GalCer injected i.p. Lung nodules were counted 8 to 12 days after tumor inoculation according to the results in the monitoring mice. n=10 from 2 independent experiments. The results are shown graphically in FIG. 5.
WT BALB/c mice were inoculated i.v. with 5×10^5 CT26 cells and treated i.p. with 30, 5 or 0.5 nmol of sulfatide or C24:2. The number of nodules in the lung was determined 8 to 12 days after injection.
WT BALB/c mice were injected i.v. with 0.5×10^6 CT26 (colon cancer cells) and treated the same day with […] of sulfatide or C24:2 or 500 pmol of α-GalCer injected i.p. Mice were injected i.p with 200 μg/ml of anti-IFNγ or rat IgG isotype control on day 0, day 1, day 2, day 3, and day 5. Lung nodules were counted 8 to 12 days after tumor inoculation according to the results in the monitoring mice. The results are shown in FIG. 8A (Rat IgG) and FIG. 8B (anti-IFN-γ).

Another experiment relates to IFN-γ. As to the kind of experiment: Serum cytokine production after i.p. lipid injection (multiplex analysis). Type of experiment: in vivo, mice. The note with it: bled 3, 6, 12 and 24 h, FIG. 7. As for the experimental part:
Mice were injected i.p. with lipids and bled 3, 6, 12 and 24 h after injection. The cytokine production in the serum was determined by multiplex analysis.

The subject of experiment [4] is CT26 (colon cancer) cells. The note with it: murine model of lung metastasis; Ambrosino et al. 2007; cited from earlier work.

“Also recorded” adds a separate entry of the source.

Regarding `CCCCC/C=C\C/C=C\CCCCCCCCCCCCCC(=O)N[C@@H](CO[C@@H]1O[C@H](CO)[C@H](O)[C@H](OS(=O)(=O)O)[C@H]1O)[C@H](O)/C=C/CCCCCCCCCCCCC` [C24:2, (2S,3R,4E)-1-(3-O-Sodiumsulfonyl-β-D-galactopyranosyloxy)-2-(N-15Z,18Z-tetracosadienoylamino)octadec-4-en-3-ol], in the experiment with lung mononuclear cells, the “production of IL-13” value is given as “induced a high production of IL-13” and the “production of IL-13 in presence of anti-CD1d blocking antibody 20H2” value was “abrogated”. Further, the “XV19 activation (IL-2 production)” value in experiment [1] is recorded as “activated only XV19; also recorded: activated only type II NKT cells”. In addition, in experiment [2], the “DN32 activation (IL-2 production)” value is listed as “not DN32.D3; also recorded: not type I”. In experiment [3] (0.5×10^6 CT26 i.v., 30 μmol i.p., anti-IFNγ or rat IgG i.p. on days 0, 1, 2, 3, 5, FIGS. 8A-8B), the “protection from tumor nodules with anti-IFN-γ versus rat IgG isotype control” value is “dependent on IFN-γ”. Besides, the “number of lung nodules” value in experiment [3] (0.5×10^6 CT26 i.v.) is on record as “significantly reduced the number of lung nodules; also recorded: induced a significant reduction of the number of lung nodules”. The “reduction of tumor nodules, dose study” value in experiment [3] (5×10^5 CT26 i.v., 30, 5 or 0.5 nmol i.p., result stated for 5 nmol, FIG. 6) is “efficient for the reduction of tumor nodules”. The “production of IFN-γ in the serum” value in the experiment with IFN-γ was “induced a high production of IFN-γ”.
As for `CCCCCCCC/C=C\CCCCCCCCCCCCCC(=O)N[C@@H](CO[C@H]1O[C@H](CO)[C@H](O)[C@H](OS(=O)(=O)O)[C@H]1O)[C@H](O)/C=C/CCCCCCCCCCCCC` [Sulfatide C24:1, 3-o-sulfo-α-galactosylceramide, d18:1/C24:1, reference compound], the “XV19 activation (IL-2 production)” value in experiment [1] is listed as “activated”. For the same compound, the “DN32 activation (IL-2 production)” value in experiment [2] is on record as “not”. Moreover, the “number of lung nodules” value in experiment [3] (0.5×10^6 CT26 i.v.) is “increased the number of lung nodules”. Moreover, in experiment [4], the “development of lung nodules (previously demonstrated)” value is “increased the development of nodules”.
For `CCCCC/C=C\C/C=C\CCCCCCCCCCCCCC(=O)N[C@@H](CO[C@@H]1O[C@H](CO)[C@H](O)[C@H](OS(=O)(=O)O)[C@H]1O)[C@H](O)[C@H](O)CCCCCCCCCCCCCC` [pC24:2, (2S,3S,4R)-1-(3-O-Sodiumsulfonyl-β-D-galactopyranosyloxy)-2-(N-15Z,18Z-tetracosadienoylamino)octadecan-3,4-diol], in the experiment with lung mononuclear cells, the “production of IL-13” value is “induced a high production of IL-13” and the “production of IL-13 in presence of anti-CD1d blocking antibody 20H2” value is listed as “abrogated”. Moreover, the “XV19 activation (IL-2 production)” value in experiment [1] is “activated XV19”. Moreover, in experiment [2], the “DN32 activation (IL-2 production)” value is “also activated DN32.D3”; the “level of activation (amount of IL-2 produced) of DN32.D3, compared with reference lipids” value was “lower than that induced by α-GalCer and in the same range as the one induced by β-GalCer”. In experiment [3] (0.5×10^6 CT26 i.v.), the “number of lung nodules” value is given as “did not have any effect”.
For the compound `CCCCCCCCCCCCCCCCCCCCCCCCCC(=O)N[C@@H](CO[C@H]1O[C@H](CO)[C@H](O)[C@H](O)[C@H]1O)[C@H](O)[C@H](O)CCCCCCCCCCCCCC` [α-GalCer, α-galactosylceramide, reference compound], the “XV19 activation (IL-2 production)” value in experiment [1] is “not”. Further, the “DN32 activation (IL-2 production)” value in experiment [2] was “activated”. In experiment [3] (0.5×10^6 CT26 i.v.), the “number of lung nodules” value is “inhibited their development”. The “development of lung nodules (previously demonstrated)” value in experiment [4] is listed as “abrogated it”.
As to “(2S,3S,4R)-1-(3-O-Sodiumsulfonyl-β-D-galactopyranosyloxy)-2-(N-15Z-tetracosenoylamino)octadecane-3,4-diol [pC24:1]”, in the experiment on lung mononuclear cells, the “production of IL-13” value was “induced a high production of IL-13” and the “production of IL-13 in presence of anti-CD1d blocking antibody 20H2” value is listed as “abrogated”. For the same compound, the “XV19 activation (IL-2 production)” value in experiment [1] was “activated XV19”. In experiment [2], the “DN32 activation (IL-2 production)” value is reported as “also activated DN32.D3”; the “level of activation (amount of IL-2 produced) of DN32.D3, compared with reference lipids” value is “lower than that induced by α-GalCer and in the same range as the one induced by β-GalCer”. Moreover, the “number of lung nodules” value in experiment [3] (0.5×10^6 CT26 i.v.) is recorded as “did not have any effect”.
For the compound “β-galactosylceramide [β-GalCer, reference compound]”, the “XV19 activation (IL-2 production)” value in experiment [1] is “not”. For the same compound, the “DN32 activation (IL-2 production)” value in experiment [2] is “activated”.
